Test results: patent US9458093B2, “Compositions for the treatment of hypertension and/or fibrosis” (Vectus Biosystems Limited, priority 2013, dated 2016)

Tests used:
SHR on 2.2% salt diet [1] = assay: Oral study: systolic blood pressure by tail cuff plethysmography in SHR on 2.2% salt diet; assay type: in vivo, rat
Source text: (§1) Fourteen week old SHR (on a 2.2% salt diet; Glen Forrest Stockfeeders) were randomly assigned to zero time control, VB0004 treatment (10, 100, 500, 1,000 and 2,500 pmol/kg/min) in the drinking solution or control drinking solution (5% ethanol in deionised distilled water (n=5 each group). The rats assigned to zero time control group were anaesthetised and had their heart and kidneys harvested while rats assigned to control and VB0004 treatment were weighed twice weekly and had their drinking solution intake monitored to allow adjustment of the VB0004 concentration in the drinking solution to maintain a constant dose over the 4, 6 or 8 weeks study periods. Blood pressure was measured twice weekly by tail cuff plethysmography (PowerLab, ADInstruments, Castle Hill, NSW, Australia). After 4, 6 or 8 weeks rats were anaesthetised, and their heart and kidneys harvested for quantitation of fibrosis.

[2] = test system: A10 embryonic vascular smooth muscle cells; assay: xCELLigence cellular impedance (cell index), A10 vascular smooth muscle cells; assay type: cell-based; details: 62.5, 125 and 250 μM, FIG. 3
Protocol: The xCELLigence SP system (Roche) was used to measure changes in cellular impedance (cell index) following the treatment of A10 embryonic vascular smooth muscle cells (ATCC, CRL-1476) with VB0004. This in vitro assay was correlated with blood pressure data obtained in the animal model described below in Example 3, so that it can be used for faster screening of larger number of compounds. […]
Briefly, 50 μl of cell culture medium (DMEM low glucose supplemented with 10% fetal bovine serum at 37° C.) was added to each well of an E-Plate 96 (Roche), and the background impedance in each well was measured. […] Cell index was monitored for each well of the E-Plate 96 in RTCA SP Station within the cell culture incubator. After overnight incubation for 16-20 hours at 5% CO2 and 95% humidity, 100 μl of VB0004 solution (VB0004 was prepared in DMSO and diluted with cell culture medium to a final DMSO concentration of 0.25%) was added to the appropriate wells of the E-Plate 96 and cell index values were measured immediately following compound treatment every 20 seconds for 3 hours. […]

SHR on 2.2% salt diet [3] = assay: Oral study: fibrosis quantitation in kidney (Masson's trichrome) of SHR on 2.2% salt diet; assay type: in vivo, rat
Source text: as §1, with “fibrosis. To quantitate fibrosis, tissue slices ≦3 mm thick were fixed in 10% buffered formalin for 24 hours, processed and embedded in paraffin. […] A minimum of 20 random fields at magnification ×20 from transverse sections (5 at each of 2 levels) were digitized and the degree of fibrosis determined as a percent of field area of each digitized image using Image-Pro Plus V.5 (Media Cybernetics, Bethesda, Md., USA) then averaged to determine the level of fibrosis for tissue for each rat.” for “fibrosis.”

[4] = test system: bovine aortic endothelial cells; assay: xCELLigence cellular impedance (cell index), bovine aortic endothelial cells; assay type: cell-based; details: 62.5, 125 and 250 μM, FIG. 5
Protocol: Briefly, 50 μl of cell culture medium (DMEM low glucose supplemented with 10% fetal bovine serum at 37° C.) was added to each well of an E-Plate 96 (Roche), and the background impedance in each well was measured. 50 μl of A-10 cell suspension (10,000 cells/well) was then added to the appropriate wells of the E-Plate 96. Cell index was monitored for each well of the E-Plate 96 in RTCA SP Station within the cell culture incubator. After overnight incubation for 16-20 hours at 5% CO2 and 95% humidity, 100 μl of VB0004 solution (VB0004 was prepared in DMSO and diluted with cell culture medium to a final DMSO concentration of 0.25%) was added to the appropriate wells of the E-Plate 96 and cell index values were measured immediately following compound treatment every 20 seconds for 3 hours. Cell index value is baseline-corrected by subtracting the cell index of vehicle-treated cells and normalized by dividing by the cell index at the time point immediately before compound addition. Baseline normalized cell index as a function of time is plotted using Roche RTCA software.
The xCELLigence SP system (Roche) was also used to measure changes in cellular impedance (cell index) following the treatment of bovine aortic endothelial cells (European Collection of Cell Cultures) with test compound. […]

SHR on 2.2% salt diet [5] = assay: Intravenous infusion study: systolic blood pressure by tail cuff plethysmography in SHR on 2.2% salt diet; assay type: in vivo, rat; details: intravenous 10 and 20 pmol/kg/min, 4 weeks, FIG. 6
Protocol: Fourteen week old SHR (on a 2.2% salt diet; Glen Forrest Stockfeeders) were randomly assigned to zero time control, VB0004 infusion (10 and 20 pmol/kg/min) or vehicle (20% DMSO in normal saline, Baxter Healthcare, Sydney NSW Australia) infusion (n=5 each group). […] Blood pressure was measured twice weekly by tail cuff plethysmography (PowerLab, ADInstruments, Castle Hill, NSW, Australia). After 4 weeks rats were again anaesthetised, their heart and kidneys harvested for quantitation of fibrosis.

SHR on 2.2% salt diet [6] = assay: Oral study: fibrosis quantitation in heart (Masson's trichrome) of SHR on 2.2% salt diet; assay type: in vivo, rat
Source text: as §1, with “fibrosis. To quantitate fibrosis, tissue slices ≦3 mm thick were fixed in 10% buffered formalin for 24 hours, processed and embedded in paraffin. […] A minimum of 20 random fields at magnification ×20 from transverse sections (5 at each of 2 levels) were digitized and the degree of fibrosis determined as a percent of field area of each digitized image using Image-Pro Plus V.5 (Media Cybernetics, Bethesda, Md., USA) then averaged to determine the level of fibrosis for tissue for each rat.” for “fibrosis.”

melting point: 167.2 to 168.9 °C
SMILES: NC(=O)CCc1cc(-c2ccccc2)ccc1-c1cccc(O)c1 [VB0004, 2′-[3-Hydroxy-(1,1′:4′,1″-terphenyl)]propanamide]
mean systolic blood pressure over time (SHR on 2.2% salt diet [1]; 2,500 pmol/kg/min orally, up to 8 weeks, FIG. 8): continued to decrease with time
mean systolic blood pressure compared to controls (SHR on 2.2% salt diet [1]; 10, 100 and 500 pmol/kg/min orally, 4 weeks, FIG. 4): decreased blood pressure compared to controls
mean systolic blood pressure compared with controls, dose dependence (SHR on 2.2% salt diet [1]; 10 to 2,500 pmol/kg/min orally, 4 weeks, FIG. 7): decreased blood pressure with increased dose compared with controls
impedance response (cell index) [2]: negative impedance response
fibrosis in the kidney (SHR on 2.2% salt diet [3]; 18 week old SHR, 10 to 500 pmol/kg/min orally, 4 weeks, vs 14 and 18 week controls, FIG. 10): decreased compared with fibrosis in 14 and 18 week controls
fibrous tissue in kidney sections (micrographs, Masson's trichrome) (SHR on 2.2% salt diet [3]; SHR, 500 pmol/kg/min for four weeks, FIG. 12): virtually no fibrous tissue is present
impedance response (cell index) [4]: negative impedance response
decrease in SBP compared with vehicle control (SHR on 2.2% salt diet [5]): 20 mmHg
fibrosis in the heart (SHR on 2.2% salt diet [6]; 18 week old SHR, 10 to 500 pmol/kg/min orally, 4 weeks, vs 14 and 18 week controls, FIG. 9): decreased compared with fibrosis in 14 and 18 week controls
fibrous tissue in heart sections (micrographs, Masson's trichrome) (SHR on 2.2% salt diet [6]; SHR, 500 pmol/kg/min for four weeks, FIG. 11): virtually no fibrous tissue is present
